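GI50 marks 50% less growth. TGI denotes the concentration required for complete inhibition of growth.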
What was measured:
Test in all cases: growth of human tumour cells (NCI), 384-well format
HCT-116 colon = system: HCT-116 colon
SK-OV-3 ovarian = system: SK-OV-3 ovarian
DU-145 prostate = system: DU-145 prostate
UACC-62 melanoma = system: UACC-62 melanoma
ACHN renal = system: ACHN renal
MOLT-4 leukemia = system: MOLT-4 leukemia
U251 glioblastoma = system: U251 glioblastoma
MCF7 breast = system: MCF7 breast
HOP-62 NSCLC = system: HOP-62 NSCLC
SW-620 colon = system: SW-620 colon
NCI-H23 lung = system: NCI-H23 lung
SK-MEL-28 melanoma = system: SK-MEL-28 melanoma
HS 578T breast = system: HS 578T breast
SR leukemia = system: SR leukemia
SF-295 CNS = system: SF-295 CNS
HOP-92 NSCLC = system: HOP-92 NSCLC
K-562 leukemia = system: K-562 leukemia
SK-MEL-5 melanoma = system: SK-MEL-5 melanoma
MDA-MB-468 breast = system: MDA-MB-468 breast
UACC-257 melanoma = system: UACC-257 melanoma
IGROV1 ovarian = system: IGROV1 ovarian
HL-60(TB) leukemia = system: HL-60(TB) leukemia
A549 NSCLC = system: A549 NSCLC
EKVX NSCLC = system: EKVX NSCLC
CAKI-1 renal = system: CAKI-1 renal
LOX IMVI melanoma = system: LOX IMVI melanoma
786-0 renal = system: 786-0 renal
SNB-19 CNS = system: SNB-19 CNS
MDA-MB-231 breast = system: MDA-MB-231 breast
PC-3 prostate = system: PC-3 prostate
COLO 205 colon = system: COLO 205 colon
CCRF-CEM leukemia = system: CCRF-CEM leukemia
NCI-H460 NSCLC = system: NCI-H460 NSCLC
NCI-H522 lung = system: NCI-H522 lung
SK-MEL-2 melanoma = system: SK-MEL-2 melanoma
NCI/ADR-RES ovarian = system: NCI/ADR-RES ovarian
SF-539 CNS = system: SF-539 CNS
T-47D breast = system: T-47D breast
BT-549 breast = system: BT-549 breast
SF-268 CNS = system: SF-268 CNS
NCI-H322M lung = system: NCI-H322M lung
NCI-H226 lung = system: NCI-H226 lung
HCC-2998 colon = system: HCC-2998 colon
HCT-15 colon = system: HCT-15 colon
HT29 colon = system: HT29 colon
UO-31 renal = system: UO-31 renal
MALME-3M melanoma = system: MALME-3M melanoma
SN12C renal = system: SN12C renal
TK-10 renal = system: TK-10 renal
A498 renal = system: A498 renal
OVCAR-5 ovarian = system: OVCAR-5 ovarian
OVCAR-4 ovarian = system: OVCAR-4 ovarian
RXF 393 renal = system: RXF 393 renal
M14 melanoma = system: M14 melanoma
SNB-75 CNS = system: SNB-75 CNS
KM12 colon = system: KM12 colon

For `Cc1cncc2cccc(S(=O)(=O)N3CCCNC[C@@H]3C)c12`, the GI50 (HCT-116 colon) was 7.52 µM, the TGI (HCT-116 colon) was 48 µM and the GI50 (SK-OV-3 ovarian) was 18.5 µM. For the same compound, the TGI (SK-OV-3 ovarian) was > 100 µM, the GI50 (DU-145 prostate) was 5.94 µM and the TGI (DU-145 prostate) was > 100 µM. The GI50 (UACC-62 melanoma) was 2040 nM, the TGI (UACC-62 melanoma) was 50.2 µM and the GI50 (ACHN renal) was 25.9 µM. For the same compound, the TGI (ACHN renal) was > 100 µM, the GI50 (MOLT-4 leukemia) was 492 nM and the TGI (MOLT-4 leukemia) was 1650 nM. The GI50 (U251 glioblastoma) was 5.17 µM, the TGI (U251 glioblastoma) was > 100 µM and the GI50 (MCF7 breast) was 28 µM. The TGI (MCF7 breast) was > 100 µM, the GI50 (HOP-62 NSCLC) was 11.3 µM and the TGI (HOP-62 NSCLC) was 62.4 µM. For the same compound, the GI50 (SW-620 colon) was 2740 nM, the TGI (SW-620 colon) was 10.7 µM and the GI50 (NCI-H23 lung) was 10.8 µM. For the same compound, the TGI (NCI-H23 lung) was 52 µM, the GI50 (SK-MEL-28 melanoma) was > 100 µM and the TGI (SK-MEL-28 melanoma) was > 100 µM. The GI50 (HS 578T breast) was 1890 nM, the TGI (HS 578T breast) was 4.55 µM and the GI50 (SR leukemia) was 227 nM. For the same compound, the TGI (SR leukemia) was 389 nM, the GI50 (SF-295 CNS) was 4.35 µM and the TGI (SF-295 CNS) was > 100 µM. For the same compound, the GI50 (HOP-92 NSCLC) was 10.3 µM, the TGI (HOP-92 NSCLC) was 36.1 µM and the GI50 (K-562 leukemia) was 537 nM. For the same compound, the TGI (K-562 leukemia) was > 100 µM, the GI50 (SK-MEL-5 melanoma) was 5.64 µM and the TGI (SK-MEL-5 melanoma) was > 100 µM. The GI50 (MDA-MB-468 breast) was 1020 nM, the TGI (MDA-MB-468 breast) was 2280 nM and the GI50 (UACC-257 melanoma) was > 100 µM. The TGI (UACC-257 melanoma) was > 100 µM, the GI50 (IGROV1 ovarian) was 7.65 µM and the TGI (IGROV1 ovarian) was 58.1 µM. It also gave a GI50 (HL-60(TB) leukemia) of 1490 nM, a TGI (HL-60(TB) leukemia) of 3.09 µM and a GI50 (A549 NSCLC) of 11.2 µM. The TGI (A549 NSCLC) was 49.4 µM, the GI50 (EKVX NSCLC) was 16.3 µM and the TGI (EKVX NSCLC) was > 100 µM. The GI50 (CAKI-1 renal) was 7.51 µM, the TGI (CAKI-1 renal) was 24.7 µM and the GI50 (LOX IMVI melanoma) was 12.1 µM. For the same compound, the TGI (LOX IMVI melanoma) was 31.8 µM, the GI50 ([…]-0 renal) was 13.6 µM and the TGI (786-0 renal) was > 100 µM. The GI50 (SNB-19 CNS) was 8.41 µM, the TGI (SNB-19 CNS) was > 100 µM and the GI50 (MDA-MB-231 breast) was 14.9 µM. The TGI (MDA-MB-231 breast) was 43.8 µM, the GI50 (PC-3 prostate) was 8.81 µM and the TGI (PC-3 prostate) was > 100 µM. For the same compound, the GI50 (COLO 205 colon) was 3.03 µM, the TGI (COLO 205 colon) was 11 µM and the GI50 (CCRF-CEM leukemia) was 1250 nM. The TGI (CCRF-CEM leukemia) was 2570 nM, the GI50 (NCI-H460 NSCLC) was 2540 nM and the TGI (NCI-H460 NSCLC) was 67.8 µM. For the same compound, the GI50 (NCI-H522 lung) was 1710 nM, the TGI (NCI-H522 lung) was 5.04 µM and the GI50 (SK-MEL-2 melanoma) was 7.56 µM. For the same compound, the TGI (SK-MEL-2 melanoma) was 42.4 µM, the GI50 (NCI/ADR-RES ovarian) was 3.63 µM and the TGI (NCI/ADR-RES ovarian) was > 100 µM. For the same compound, the GI50 (SF-539 CNS) was 4.32 µM, the TGI (SF-539 CNS) was 20.1 µM and the GI50 (T-47D breast) was > 100 µM. For the same compound, the TGI (T-47D breast) was > 100 µM, the GI50 (BT-549 breast) was 1800 nM and the TGI (BT-549 breast) was 7.48 µM. For the same compound, the GI50 (SF-268 CNS) was 11.7 µM, the TGI (SF-268 CNS) was 87.3 µM and the GI50 (NCI-H322M lung) was 87.7 µM. The TGI (NCI-H322M lung) was > 100 µM, the GI50 (NCI-H226 lung) was 13.2 µM and the TGI (NCI-H226 lung) was 68.2 µM. The GI50 (HCC-2998 colon) was 42.4 µM, the TGI (HCC-2998 colon) was > 100 µM and the GI50 (HCT-15 colon) was 11.2 µM. For the same compound, the TGI (HCT-15 colon) was > 100 µM, the GI50 (HT29 colon) was 4.96 µM and the TGI (HT29 colon) was > 100 µM. For the same compound, the GI50 (UO-31 renal) was 10.6 µM, the TGI (UO-31 renal) was 24 µM and the GI50 (MALME-3M melanoma) was > 100 µM. The TGI (MALME-3M melanoma) was > 100 µM, the GI50 (SN12C renal) was 15.1 µM and the TGI (SN12C renal) was 61.1 µM. The GI50 (TK-10 renal) was 10.1 µM, the TGI (TK-10 renal) was 37.3 µM and the GI50 (A498 renal) was > 100 µM. For the same compound, the TGI (A498 renal) was > 100 µM, the GI50 (OVCAR-5 ovarian) was 25.5 µM and the TGI (OVCAR-5 ovarian) was > 100 µM. For the same compound, the GI50 (OVCAR-4 ovarian) was > 100 µM, the TGI (OVCAR-4 ovarian) was > 100 µM and the GI50 (RXF 393 renal) was 5.06 µM. For the same compound, the TGI (RXF 393 renal) was 22.6 µM, the GI50 (M14 melanoma) was > 100 µM and the TGI (M14 melanoma) was > 100 µM. The GI50 (SNB-75 CNS) was 1660 nM, the TGI (SNB-75 CNS) was 10 µM and the GI50 (KM12 colon) was 16.4 µM. The TGI (KM12 colon) was 81.2 µM.

Reference: PubChem BioAssay (NCI)
